Test results published in patent US11332475B2, “Optically active pyranochromenyl phenol derivative and pharmaceutical composition comprising same” (GLACEUM, INC., priority 2016, dated 2022).

How the values were obtained:
Type in all cases: in vivo
C57BLKS/J-db/db mice [1] = experiment: Glucose tolerance test in db/db mice; details: db/db mouse; for Blood sugar (mg/dl), 15 min after administration of glucose / Blood sugar (mg/dl), 30 min after administration of glucose / Blood sugar (mg/dl), 60 min after administration of glucose / Blood sugar (mg/dl), 120 min after administration of glucose / Blood sugar (mg/dl), 180 min after administration of glucose / Blood sugar (mg/dl), 240 min after administration of glucose / Blood sugar (mg/dl), 0 min after administration of glucose / AUC of blood sugar: 48th day, average; for Blood sugar (mg/dl), 15 min after administration of glucose / Blood sugar (mg/dl), 30 min after administration of glucose / Blood sugar (mg/dl), 60 min after administration of glucose / Blood sugar (mg/dl), 120 min after administration of glucose / Blood sugar (mg/dl), 180 min after administration of glucose / Blood sugar (mg/dl), 240 min after administration of glucose / Blood sugar (mg/dl), 0 min after administration of glucose: glucose 2 g/kg oral; for Blood sugar (mg/dl), 0 min after administration of glucose: before glucose; for AUC of blood sugar: glucose tolerance test 0-240 min, Phoenix WinNonlin
Procedure: (§1) Specifically, 5-week-old male C57BLKS/J-db/db mice (Central Lab. Animal Inc., Korea) were purchased and acclimatized for 2 weeks, and then used in the present experiment. The R-enantiomer (Compound 3a) and the S-enantiomer (Compound 3b) prepared in Example 2 were weighed (CP423S, Sartorius, Germany) according to the administration dose and put into 50 ml tubes, an excipient (10% LM 2125 CS MCT solution) stored at room temperature was added thereto, and then the resulting mixture was stirred by means of a vortex mixer so as to dissolve the excipient. Thereafter, the solution was ultrasonically treated for about 10 minutes, and a stock solution was prepared by formulating the solution at a predetermined concentration. A 0.5% aqueous MC solution as an excipient was added to the prepared stock solution, the resulting mixture was gently stirred by means of a vortex mixer, homogenized and prepared by means of a homogenizer (PT-1600E, Kinematica, Switzerland) at 30,000 rpm for 3 minutes, and then a solution was prepared at a final predetermined concentration by performing ultrasonic wave treatment for 30 minutes. The sample thus prepared was administered through the oral gavage once daily for 6 weeks by using a disposable plastic syringe with a zonde for oral administration attached.
While the C57BLKS/J-db/db mouse was bred, the mouse was fasted for 14 to 16 hours on the 48th day after administration, and then a glucose tolerance test was performed by orally administering glucose (Lot No: SLBM9269V, Sigma-Aldrich. USA) at a dose of 2 g/kg to the mice. Specifically, blood was collected from the caudal vein seven times in total including before the administration of glucose, at 15 minutes after the administration of glucose, at 30 minutes after the administration of glucose, at 60 minutes after the administration of glucose, at 120 minutes after the administration of glucose, at 180 minutes after the administration of glucose, and at 240 minutes after the administration of glucose. Thereafter, blood sugar was measured by using two blood sugar meters (AGM-4000, Allmedicus Inc., Korea), and then an average blood sugar was calculated by using each blood sugar measurement value. The area under the blood concentration-time curve (AUC) for the blood sugar value at each measurement time point was calculated by using a Phoenix WinNonlin program.

[2] = test system: diet induced obesity (DIO) mouse; experiment: Anti-obesity effect (body weight change) in diet induced obesity (DIO) mouse; details: for Anti-obesity effect (%): % body weight change by Equation 1; for Anti-obesity activity compared with other isomer/racemate: result in words
Procedure: Specifically, a 5- to 6-week-old female C57BL/6J mouse (Jackson Lab., USA) were purchased and fed with only high-fat fodder for at least 11 weeks to produce a diet induced obesity (DIO) mouse. Samples were exactly taken from a control and the racemic compound, the R-enantiomer (Compound 2a) and the S-enantiomer (Compound 2b) in Example 1 according to the administration dose (0, 20, and 50 mg/kg) and put into Falcon tubes, 3 ml of a 0.5% aqueous methyl cellulose solution was added thereto, and the resulting mixture was gently mixed by means of a vortex mixer. Thereafter, the mixture was homogenized by using a homogenizer (30,000 rpm, Ultra-Turrax® T10 Basic, IKA) for 3 minutes while 1.5 ml of a 0.5% aqueous methyl cellulose solution was added thereto. The sample thus prepared was administered through the oral gavage once daily for 6 weeks by using a disposable plastic syringe. The body weight was measured once a week while the DIO mouse was bred in this manner.
Based on the data thus measured, the anti-obesity effect was calculated according to the following Equation 1. Anti-obesity effect (%)={(Body weight after compound is administered)−(Body weight before compound is administered)}/(Body weight before compound is administered))×100 [Equation 1]
For the anti-obesity efficacy of the R-enantiomer (Compound 3a) and the S-enantiomer (Compound 3b) of the optically active pyranochromenylphenol compound prepared in Example 2, an experiment was performed in the same manner as in Experimental Example 1.
Based on the data thus measured, the anti-obesity effect was calculated according to Equation 1.

C57BLKS/J-db/db mice [3] = experiment: Change in glycated hemoglobin of db/db mouse; details: average; for Glycated hemoglobin (HbAlc, %), before administration: 300 mg/kg group, before administration (baseline); for Glycated hemoglobin (HbAlc, %), 29th day after administration / Glycated hemoglobin (HbAlc, %), 43rd day after administration: 300 mg/kg
Procedure: as §1
By using the same method as in Experimental Example 3, a racemic compound of Compound 1, Compound 1a being an R-enantiomer, a racemic compound of Compound 3 prepared in Example 2 and Compound 3a being an R-enantiomer were administered to the C57BLKS/J-db/db mice, and then the anti-diabetes effects were confirmed.
The following Table 5 is a result of measuring a change in glycated hemoglobin of the db/db mouse according to the administration of the normal group, the negative control the racemic compound of Compound 1, Compound 1a being the R-enantiomer, the racemic Compound of Compound 3 prepared in Example 2 and Compound 3a being the R-enantiomer.

[4] = 200 mg/kg oral gavage once daily for 6 weeks
[5] = 50 mg/kg oral gavage once daily for 6 weeks

SMILES: CCCOc1ccc([C@H]2COc3c(ccc4c3CCC(C)(C)O4)C2)c(O)c1 [Compound 3b, (S)-3-(2-hydroxy-4-propoxyphenyl)-8,8-dimethyl-2,3,4,8,9,10-hexahydropyrano[2,3-f]chromene]
- Blood sugar (mg/dl), 15 min after administration of glucose (C57BLKS/J-db/db mice [1]; 100 mg/kg oral once daily): 595 mg/dL
- Blood sugar (mg/dl), 30 min after administration of glucose (C57BLKS/J-db/db mice [1]; 100 mg/kg oral once daily): 616 mg/dL
- Blood sugar (mg/dl), 60 min after administration of glucose (C57BLKS/J-db/db mice [1]; 100 mg/kg oral once daily): 628 mg/dL
- Blood sugar (mg/dl), 120 min after administration of glucose (C57BLKS/J-db/db mice [1]; 100 mg/kg oral once daily): 472 mg/dL
- Blood sugar (mg/dl), 180 min after administration of glucose (C57BLKS/J-db/db mice [1]; 100 mg/kg oral once daily): 422 mg/dL
- Blood sugar (mg/dl), 240 min after administration of glucose (C57BLKS/J-db/db mice [1]; 100 mg/kg oral once daily): 397 mg/dL
- Blood sugar (mg/dl), 0 min after administration of glucose (C57BLKS/J-db/db mice [1]; 100 mg/kg oral once daily): 392 mg/dL
- AUC of blood sugar (C57BLKS/J-db/db mice [1]; 100 mg/kg oral once daily): 782 mg/dL/min
- Anti-obesity effect (%) [2, 4]: −19.5%
- Body weight of the mouse after administration for 6 weeks ([2]; 6 weeks, FIG. 4, result in words): close to the body weight of the normal mouse
- Anti-obesity activity compared with other isomer/racemate [2]: better anti-obesity activity than Compound 3a

SMILES: CCCOc1ccc(C2COc3c(ccc4c3CCC(C)(C)O4)C2)c(O)c1 (racemic) [Compound 3, 3-(2-hydroxy-4-propoxyphenyl)-8,8-dimethyl-2,3,4,8,9,10-hexahydropyrano[2,3-f]chromene]
- Glycated hemoglobin (HbAlc, %), before administration (C57BLKS/J-db/db mice [3]): 4.7%
- Glycated hemoglobin (HbAlc, %), 29th day after administration (C57BLKS/J-db/db mice [3]): 6.7%
- Glycated hemoglobin (HbAlc, %), 43rd day after administration (C57BLKS/J-db/db mice [3]): 6.2%

SMILES: CCOc1ccc(C2COc3c(ccc4c3CCC(C)(C)O4)C2)c(O)c1 (racemic) [Compound 2, 3-(2-hydroxy-4-ethoxyphenyl)-8,8-dimethyl-2,3,4,8,9,10-hexahydropyrano[2,3-f]chromene]
- Anti-obesity effect (%) ([2]; 20 mg/kg oral gavage once daily for 6 weeks): 16.11%
- Anti-obesity effect (%) [2, 5]: 2.29%

SMILES: CCCOc1ccc([C@@H]2COc3c(ccc4c3CCC(C)(C)O4)C2)c(O)c1 [Compound 3a, (R)-3-(2-hydroxy-4-propoxyphenyl)-8,8-dimethyl-2,3,4,8,9,10-hexahydropyrano[2,3-f]chromene]
- Glycated hemoglobin (HbAlc, %), before administration (C57BLKS/J-db/db mice [3]): 4.7%
- Glycated hemoglobin (HbAlc, %), 29th day after administration (C57BLKS/J-db/db mice [3]): 7.1%
- Glycated hemoglobin (HbAlc, %), 43rd day after administration (C57BLKS/J-db/db mice [3]): 5.3%
- Blood sugar (mg/dl), 15 min after administration of glucose (C57BLKS/J-db/db mice [1]; 100 mg/kg oral once daily): 473 mg/dL
- Blood sugar (mg/dl), 30 min after administration of glucose (C57BLKS/J-db/db mice [1]; 100 mg/kg oral once daily): 527 mg/dL
- Blood sugar (mg/dl), 60 min after administration of glucose (C57BLKS/J-db/db mice [1]; 100 mg/kg oral once daily): 541 mg/dL
- Blood sugar (mg/dl), 120 min after administration of glucose (C57BLKS/J-db/db mice [1]; 100 mg/kg oral once daily): 200 mg/dL
- Blood sugar (mg/dl), 180 min after administration of glucose (C57BLKS/J-db/db mice [1]; 100 mg/kg oral once daily): 176 mg/dL
- Blood sugar (mg/dl), 240 min after administration of glucose (C57BLKS/J-db/db mice [1]; 100 mg/kg oral once daily): 184 mg/dL
- Blood sugar (mg/dl), 0 min after administration of glucose (C57BLKS/J-db/db mice [1]; 100 mg/kg oral once daily): 193 mg/dL
- AUC of blood sugar (C57BLKS/J-db/db mice [1]; 100 mg/kg oral once daily): 526 mg/dL/min
- Blood sugar (mg/dl), 15 min after administration of glucose (C57BLKS/J-db/db mice [1]; 150 mg/kg oral once daily): 440 mg/dL
- Blood sugar (mg/dl), 30 min after administration of glucose (C57BLKS/J-db/db mice [1]; 150 mg/kg oral once daily): 469 mg/dL
- Blood sugar (mg/dl), 60 min after administration of glucose (C57BLKS/J-db/db mice [1]; 150 mg/kg oral once daily): 460 mg/dL
- Blood sugar (mg/dl), 120 min after administration of glucose (C57BLKS/J-db/db mice [1]; 150 mg/kg oral once daily): 234 mg/dL
- Blood sugar (mg/dl), 180 min after administration of glucose (C57BLKS/J-db/db mice [1]; 150 mg/kg oral once daily): 153 mg/dL
- Blood sugar (mg/dl), 240 min after administration of glucose (C57BLKS/J-db/db mice [1]; 150 mg/kg oral once daily): 163 mg/dL
- Blood sugar (mg/dl), 0 min after administration of glucose (C57BLKS/J-db/db mice [1]; 150 mg/kg oral once daily): 175 mg/dL
- AUC of blood sugar (C57BLKS/J-db/db mice [1]; 150 mg/kg oral once daily): 481 mg/dL/min
- Blood sugar (mg/dl), 15 min after administration of glucose (C57BLKS/J-db/db mice [1]; 200 mg/kg oral once daily): 488 mg/dL
- Blood sugar (mg/dl), 30 min after administration of glucose (C57BLKS/J-db/db mice [1]; 200 mg/kg oral once daily): 507 mg/dL
- Blood sugar (mg/dl), 60 min after administration of glucose (C57BLKS/J-db/db mice [1]; 200 mg/kg oral once daily): 437 mg/dL
- Blood sugar (mg/dl), 120 min after administration of glucose (C57BLKS/J-db/db mice [1]; 200 mg/kg oral once daily): 223 mg/dL
- Blood sugar (mg/dl), 180 min after administration of glucose (C57BLKS/J-db/db mice [1]; 200 mg/kg oral once daily): 183 mg/dL
- Blood sugar (mg/dl), 240 min after administration of glucose (C57BLKS/J-db/db mice [1]; 200 mg/kg oral once daily): 174 mg/dL
- Blood sugar (mg/dl), 0 min after administration of glucose (C57BLKS/J-db/db mice [1]; 200 mg/kg oral once daily): 159 mg/dL
- AUC of blood sugar (C57BLKS/J-db/db mice [1]; 200 mg/kg oral once daily): 501 mg/dL/min
- Adjustment of blood sugar in glucose tolerance test, compared with other enantiomer (C57BLKS/J-db/db mice [1]; result in words): adjusted blood sugar well as compared to the S-enantiomer (Compound 3b)
- Anti-obesity effect (%) [2, 4]: −8.1%

SMILES: CCOc1ccc([C@H]2COc3c(ccc4c3CCC(C)(C)O4)C2)c(O)c1 [Compound 2b, (S)-3-(2-hydroxy-4-ethoxyphenyl)-8,8-dimethyl-2,3,4,8,9,10-hexahydropyrano[2,3-f]chromene]
- Anti-obesity effect (%) [2, 5]: −10.99%
- Anti-obesity activity compared with other isomer/racemate [2]: better effect of suppressing an increase in body weight than the racemic compound and Compound 2a

SMILES: CCOc1ccc([C@@H]2COc3c(ccc4c3CCC(C)(C)O4)C2)c(O)c1 [Compound 2a, (R)-3-(2-hydroxy-4-ethoxyphenyl)-8,8-dimethyl-2,3,4,8,9,10-hexahydropyrano[2,3-f]chromene]
- Anti-obesity effect (%) [2, 5]: 7.58%
